We go through 24 compounds from US20130225548A1, “Pyridine Derivative and Medicinal Agent” (NIPPON SHINYAKU CO., LTD., priority 2010, published 2013).

Structures can show the parent of a compound that is named as a salt. Bounds are passed on as bounds.

The assay has as its target T1, Syk tyrosine kinase (Homo sapiens, UniProt P43405).
T1 construct: purchased Carna Biosciences, Inc
The assay can be described thus: Test for Syk tyrosine kinase inhibitory activity (ELISA). In kind it is biochemical. Particulars: Syk tyrosine kinase (Carna Biosciences), 25 μM ATP in substrate solution, 30° C. 1 hour, n=2; read-out: Evaluation (IC50, concentration inhibiting the tyrosine kinase activity at 50%). In outline: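 Syk kinase (0.025 nM stock before addition) with 625 nM biotinylated peptide and 25 μM ATP (substrate-solution levels) in Tris pH 7.5, MgCl2, DTT; 1 h at 30 °C on streptavidin plates. Phosphotyrosine detected by HRP anti-pTyr antibody, TMB, A450; IC50 by non-linear regression.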
(In general: In an ELISA, binding on a coated surface is turned into a signal by an enzyme label.)
As for `N#Cc1ccnc(Nc2cc(C3CC3)cc(-c3ccc4c(c3)ncn4C3CC3)n2)c1` [Example 150, 2-{[4-cyclopropyl-6-(1-cyclopropyl-1H-benzimidazol-5-yl)pyridin-2-yl]amino}pyridin-4-carbonitrile hydrochloride], the IC50 lay in the range of 50 to 500 nM.

For `CC(=O)NCCn1cnc2cc(-c3cc(C4CC4)cc(Nc4cc(C#N)ccn4)n3)ccc21` [Example 151, N-[2-(5-{6-[(4-cyanopyridin-2-yl)amino]-4-cyclopropylpyridin-2-yl}-1H-benzimidazol-1-yl)ethyl]acetamide hydrochloride], the IC50 lay within 5 to 50 nM.

Consider `Cn1cnc2ccc(-c3cc(C4CC4)cc(Nc4cc(C#N)ccn4)n3)cc21` [Example 153, 2-{[4-cyclopropyl-6-(1-methyl-1H-benzimidazol-6-yl)pyridin-2-yl]amino}pyridine-4-carbonitrile hydrochloride], for which the IC50 was 5 to 50 nM.

For `N#Cc1ccnc(Nc2cc(C3CC3)cc(-c3ccc(CN4CCCN(C(N)=O)CC4)nc3)n2)c1` [Example 154, 4-({6-[(4-cyanopyridin-2-yl)amino]-4-cyclopropyl-2,3′-bipyridin-6′-yl}methyl)-1,4-diazepane-1-carboxamide hydrochloride], the IC50 fell in the range of 50 to 500 nM.

Regarding `Cc1cc(N2CCS(=O)(=O)CC2)ncc1-c1cc(C2CC2)cc(Nc2cc(C#N)ccn2)n1` [Example 155, 2-{[4-cyclopropyl-6′-(1,1-dioxidethiomorpholin-4-yl)-4′-methyl-2,3′-bipyridin-6-yl]amino}pyridine-4-carbonitrile hydrochloride], the IC50 lay within 5 to 50 nM.

In the case of `N#Cc1ccnc(Nc2cc(C3CC3)cc(-c3ccc4[nH]c(=O)n([C@H]5CC[C@H](O)CC5)c4c3)n2)c1` [Example 156, 2-({4-cyclopropyl-6-[3-(trans-4-hydroxycyclohexyl)-2oxo-2,3-dihydro-1H-benzimidazol-5-yl]pyridin-2-yl}amino)pyridine-4-carbonitrile hydrochloride], the IC50 is under 5 nM.

Consider `N#Cc1ccnc(Nc2cc(C3CC3)cc(-c3ccc4ccnc(N5CCNC(=O)C5)c4c3)n2)c1` [Example 158, 2-({4-cyclopropyl-6-[1-(3-oxopiperazin-1-yl)isoquinolin-7-yl]pyridin-2-yl}amino)pyridine-4-carbonitrile hydrochloride], for which the IC50 was under 5 nM.

`Cc1nc2ccc(-c3cc(C4CC4)cc(Nc4cc(C#N)ccn4)n3)cc2n1[C@H]1CC[C@H](O)CC1` [Example 159, 2-({4-cyclopropyl-6-[1-trans-4-hydroxycylohexyl)-2-methyl-1H-benzimidazol-6-yl]pyridin-2-yl}amino)pyridine-4-carbonitrile hydrochloride]: the IC50 is under 5 nM.

`CC(C)c1nc2ccc(-c3cc(C4CC4)cc(Nc4cc(C#N)ccn4)n3)cc2n1[C@H]1CC[C@H](O)CC1` [Example 161, 2-({4-cyclopropyl-6-[1-(trans-4-hydroxycyclohexyl)-2-(propan-2-yl)-1H-benzimidazol-6-yl]pyridin-2-y}amino)pyridine-4-carbonitrile hydrochloride]: the IC50 was under 5 nM.

As to `N#Cc1ccnc(Nc2cc(C3CC3)cc(-c3ccc4nc(CO)n([C@H]5CC[C@H](O)CC5)c4c3)n2)c1` [Example 162, 2-({4-cyclopropyl-6-[1-(trans-4-hydroxycyclohexyl)-2-(hydroxymethyl)-1H-benzimidazol-6-yl]pyridin-2-yl}amino)pyridine-4-carbonitrile hydrochloride], the IC50 is under 5 nM.

With `N#Cc1ccnc(Nc2cc(C3CC3)cc(-c3ccc4ccnc(N5CCNCC5)c4c3)n2)c1` [Example 163, 2-({4-cyclopropyl-6-[1-(piperazin-1-yl)isoquinolin-7-yl]pyridin-2-yl}amino)pyridine-4-carbonitrile hydrochloride], the IC50 fell in the range of 5 to 50 nM.

In the case of `N#Cc1ccnc(Nc2cc(C3CC3)cc(-c3ccc4ccnc(N5CCC(O)CC5)c4c3)n2)c1` [Example 164, 2-({4-cyclopropyl-6-[1-(4-hydroxypiperidin-1-yl)isoquinolin-7-yl]pyridin-2-yl}amino)pyridine-4-carbonitrile hydrochloride], the IC50 lay in the range of 5 to 50 nM.

Regarding `N#Cc1ccnc(Nc2cc(C3CC3)cc(-c3ccc4ccnc(N5CC[C@@H](O)C5)c4c3)n2)c1` [Example 165, 2-[(4-cyclopropyl-6-{1-[(3R)-3-hydroxypyrrolidin-1-]isoquinolin-7-yl}pyridin-2-yl)amino]pyridine-4-carbonitrile hydrochloride], the IC50 was 5 to 50 nM.

Take `N#Cc1ccnc(Nc2cc(C3CC3)cc(-c3ccc4ccnc(N5CC(O)C5)c4c3)n2)c1` [Example 166, 2-({4cyclopropyl-6-[1-(3-hydroxyazetidin-1-yl)isoquinolin-7-yl]pyridin-2-yl}amino)pyridine-4-carbonitrile hydrochloride]: the IC50 was 5 to 50 nM.

As to `N#Cc1ccnc(Nc2cc(C3CC3)cc(-c3ccc4ccnc(N5CCC[C@H]5CO)c4c3)n2)c1` [Example 167, 2-[(4-cyclopropyl-6-{1-[(2S)-2-(hydroxymethyl)pyrrolidin-1-yl]isoquinolin-7-yl}pyridin-2-yl)amino]pyridine-4-carbonitrile hydrochloride], the IC50 fell in the range of 5 to 50 nM.

In the case of `N#Cc1ccnc(Nc2cc(C3CC3)cc(-c3ccc4ccnc(N5CC[C@@H](F)C5)c4c3)n2)c1` [Example 168, 2-[(4-cyclopropyl-6-{1-[(3R)-3-fluoropyrrolidin-1-yl]isoquinolin-7-yl}-pyridin-2-yl)amino]pyridine-4-carbonitrile hydrochloride], the IC50 was in the range of 50 to 500 nM.

For `N#Cc1ccnc(Nc2cc(C3CC3)cc(-c3ccc4ccnc(N5CC[C@@H](N)C5)c4c3)n2)c1` [Example 169, hydrochloride], the IC50 was in the range of 5 to 50 nM.

Regarding `N#Cc1ccnc(Nc2cc(C3CC3)cc(-c3ccc4ccnc(N5CCNC5=O)c4c3)n2)c1` [Example 171, 2-({4-cyclopropyl-6-[1-(2-oxo-imidazolidin-1-yl)isoquinolin-7-yl]pyridin-2-yl}amino)pyridine-4-carbonitrile hydrochloride], the IC50 fell in the range of 5 to 50 nM.

Turning to `N#Cc1ccnc(Nc2cc(C3CC3)cc(-c3ccc4ncn([C@H]5CC[C@H](N)CC5)c4c3)n2)c1` [Example 172, 2-({6-[1-(trans-4-aminocyclohexyl)-1H-benzimidazol-6-yl]-4-cyclopropylpyridin-2-yl}amino)pyridine-4-carbonitrile hydrochloride], the IC50 was in the range of 5 to 50 nM.

`N#Cc1ccnc(Nc2cc(C3CC3)cc(-c3ccc4ncn(C5CCNCC5)c4c3)n2)c1` [Example 173, hydrochloride]: the IC50 is under 5 nM.

On to `N#Cc1ccnc(Nc2cc(C3CC3)cc(-c3ccc4ncn(Cc5ccc(=O)[nH]c5)c4c3)n2)c1` [Example 174, 2-({4-cyclopropyl-6-[1-[(6-oxo-1,6-dihydropyridin-3-yl)methyl]-1H-benzimidazol-6-yl}pyridin-2-yl)amino]pyridine-4-carbonitrile hydrochloride], for which the IC50 lay within 5 to 50 nM.

For `N#Cc1ccnc(Nc2cc(C3CC3)cc(-c3ccc4nc([C@H]5CC[C@H](O)CC5)[nH]c4c3)n2)c1` [Example 175, 2-({4-cyclopropyl-6-[2-(trans-4-hydroxycyclohexyl)-1H-benzimidazol-6-yl]pyridin-2-yl}amino)pyridine-4-carbonitrile hydrochloride], the IC50 was 50 to 500 nM.

In the case of `N#Cc1ccnc(Nc2cc(C3CC3)cc(-c3ccc4ncn([C@H]5CC[C@H](C#N)CC5)c4c3)n2)c1` [Example 176, 2-({6-[1-(trans-4-cyanocyclohexyl)-1H-benzimidazol-6-yl]-4-cyclopropylpyridin-2-yl}amino)pyridine-4-carbonitrile hydrochloride], the IC50 lay in the range of 5 to 50 nM.

As to `N#Cc1ccnc(Nc2cc(C3CC3)cc(-c3cnc(N4CCS(=O)(=O)CC4)c(F)c3)n2)c1` [Example 177, 2-{[4-cyclopropyl-6′-(1,1-dioxidethiomorpholin-4-yl)-5′-fluoro-2,3′-bipyridin-6-yl]amino}pyridine-4-carbonitrile hydrochloride], the IC50 was in the range of 5 to 50 nM.
